{"source": "patent US10918620B2", "about": "“Use of statins for periodontal disease and bone regeneration” (priority 2012, dated 2021)", "key": {"[1]": {"tested_on": "periodontal disease", "assay": "Concurrent cohort study of systemic statin therapy: periodontal clinical parameters (BOP, PISA)", "type": "in vivo, human", "details": "patients taking statins (Atorvastatin 20 mg every 24 hours, systemic); 6 months", "method": "A concurrent cohort study was perform, with two groups of patients, some exposed to statin therapy and some not exposed to statin therapy. Patient submitted to statin therapy received Atorvastatin 20 mg, every 24 hours, indicated as part of a preventive cardiologic therapy.\nThe eligible patients were those that meet the following inclusion criteria: a) informed consent, b) over 35 years, c) with at least 14 natural teeth in the mouth (excluding third molars), d) have some degree of periodontal disease.\nMeasures were taken when starting the study and after 6 months for both groups of patients. The examination included probing depth (PD), clinical attachment level (CAL) and bleeding on probing index (BOP).\nPeriodontal probing was performed to each tooth at 6 sites (mesiovestibular, mediovestibular, distovestibular, mesiolingual/palatal, mediolingual/palatal and distolingual/palatal). CAL was defined as the distance from the cementoenamel junction to the pocket bottom. […] BI was determined by assigning a “+” sign to the presence of bleeding on probing in vestibular and/or palatal of the examined tooth and with a “−” sign to the absence of bleeding. […]\nPeriodontal Inflamed Surface Area (PISA) was also calculated using data insertion loss, gingival recession and bleeding on probing. […]"}, "[2]": {"tested_on": "IL-6, IL-10, C-reactive protein (CRP) in GCF", "assay": "Cohort study of systemic statin therapy: inflammation biomarkers in gingival crevicular fluid by Elisa", "type": "in vivo, human", "from_the_text": "Measurements at Gingival Crevicular Fluid Level (GCF).\nUpon confirmation of periodontal diagnosis, samplings of GCF were taken by standard procedures. These are described below:\nTwo sites were selected from each quadrant which PD is higher. After isolating the tooth with cotton balls, supra-gingival plaque was removed with a curette without touching the gingival margin. Crevicular site was gently dried with air. The GCF was collected with paper cones. The paper points were inserted into the sulcus/pocket until feeling a medium resistance and were left for 40 seconds. Cones contaminated with saliva or blood were excluded. Later the paper cones were placed in a tube. GCF samples were storage at −80° C.\nIL-6, IL-10, and C-reactive protein (CRP) were measured as inflammation biomarkers. Measurements were performed through Elisa test. Measurements were performed at the start of the study and after 6 months for both groups of patients, with and without indication of statins."}, "[3]": {"tested_on": "Human PBMC stimulated with PHA (T cells)", "assay": "Proliferation of T cells evaluation (CellTrace Violet, flow cytometry)", "type": "cell-based", "details": "PHA 25 μg/ml, 4 days; FIG. 2", "method": "The specific objectives of this assay were to evaluate the degree of cell toxicity (cell viability measured in dead % of T cells) and the level of T cell proliferation under a specific stimulus in the presence of: Human PBMC derived from healthy control donors were stimulated with PHA, 25 μg/ml, in presence or absence of Atorvastatin (AT) in various formulations: irradiated (ATi) or non-irradiated (ATni) Atorvastatin, soluble or toothpaste. […] Later cells were harvested and stained with anti-CD4 antibody conjugated to FITC and the samples were analyzed by flow cytometer Beckman Coulter XL."}, "[4]": {"tested_on": "52 bacteria isolated from subgingival plaque", "details": "cited from earlier work"}, "[5]": {"tested_on": "supragingival bacterial plaque and gingival inflammation", "details": "clinical results, mouthwash; cited from earlier work"}, "[6]": {"tested_on": "release of cytokines and neutrophil adhesion to venous endothelium", "details": "pretreatment; patients undergoing coronary artery bypass surgery, bypass, or cardiopulmonary graft; cited from earlier work"}}, "data": [{"compound": "CC(C)c1c(C(=O)Nc2ccccc2)c(-c2ccccc2)c(-c2ccc(F)cc2)n1CC[C@@H](O)C[C@@H](O)CC(=O)O", "note": "[statins, Atorvastatin]", "values": [{"measurement": "reduction of area of periodontal inflammation measured by the PISA index", "setting": "[1]", "value": 58.66, "unit": "%"}, {"measurement": "reduction of bleeding on probing index (BOP)", "setting": "[1]", "value": 60.89, "unit": "%"}, {"measurement": "levels of IL-6 in GCF, average", "setting": "[2]; patients consuming statins (Atorvastatin 20 mg every 24 hours), patients without statins 4.8 pg/ml", "value": 0.47, "unit": "pg/mL"}, {"measurement": "reduction of IL-6 in GCF", "setting": "[2]; patients consuming statins vs patients without statins use", "value": 90.1, "unit": "%"}, {"measurement": "levels of IL-10 in GCF", "setting": "[2]; patients taking statins, average in patients not consuming statins 1.23 pg/ml", "value": "no IL-10 could be detected"}, {"measurement": "reduction of levels of CRP (C-reactive protein) in GCF", "setting": "[2]; patients taking systemic statins", "value": 93, "unit": "%"}]}, {"compound": "CC(C)c1c(C(=O)Nc2ccccc2)c(-c2ccccc2)c(-c2ccc(F)cc2)n1CC[C@@H](O)C[C@@H](O)CC(=O)O", "note": "[Soluble ATi, Atorvastatin]", "values": [{"measurement": "T cell proliferation (immunomodulatory behavior)", "setting": "[3]", "value": "reduces immune cell proliferation"}]}, {"compound": "[H]/N=C(\\N/C(=N/[H])NCCCCCCNC(=N)NC(=N)Nc1ccc(Cl)cc1)Nc1ccc(Cl)cc1", "note": "[chlorhexidine]", "values": [{"measurement": "antimicrobial resistance", "setting": "[4]", "value": "has not been detected"}, {"measurement": "concentration at which all bacteria isolated from patients with periodontitis were inhibited", "setting": "[4]", "value": 250, "unit": "mg/mL"}, {"measurement": "decreased levels of gingival inflammation", "setting": "[5]", "value": 45, "unit": "%"}, {"measurement": "decreased levels of supragingival bacterial plaque", "setting": "[5]", "value": 55, "unit": "%"}]}, {"compound": "CC(C)c1c(C(=O)Nc2ccccc2)c(-c2ccccc2)c(-c2ccc(F)cc2)n1CC[C@@H](O)C[C@@H](O)CC(=O)O", "note": "[atorvastatin]", "values": [{"measurement": "release of cytokines and neutrophil adhesion to venous endothelium", "setting": "[6]", "value": "significantly reduce the release of cytokines and neutrophil adhesion to venous endothelium"}]}]}
